This is an account of results in US20140148443A1, “Novel Imidazolines as dual inhibitors of MDM2 and MDMX” (priority 2012, published 2014).

The structures appear in SMILES notation. Where a name gives a salt, the structure may show the parent alone.

One assay deals with T1, GST-tagged MDMX (Homo sapiens, UniProt O15151).
T1 sequence (O15151 1-490): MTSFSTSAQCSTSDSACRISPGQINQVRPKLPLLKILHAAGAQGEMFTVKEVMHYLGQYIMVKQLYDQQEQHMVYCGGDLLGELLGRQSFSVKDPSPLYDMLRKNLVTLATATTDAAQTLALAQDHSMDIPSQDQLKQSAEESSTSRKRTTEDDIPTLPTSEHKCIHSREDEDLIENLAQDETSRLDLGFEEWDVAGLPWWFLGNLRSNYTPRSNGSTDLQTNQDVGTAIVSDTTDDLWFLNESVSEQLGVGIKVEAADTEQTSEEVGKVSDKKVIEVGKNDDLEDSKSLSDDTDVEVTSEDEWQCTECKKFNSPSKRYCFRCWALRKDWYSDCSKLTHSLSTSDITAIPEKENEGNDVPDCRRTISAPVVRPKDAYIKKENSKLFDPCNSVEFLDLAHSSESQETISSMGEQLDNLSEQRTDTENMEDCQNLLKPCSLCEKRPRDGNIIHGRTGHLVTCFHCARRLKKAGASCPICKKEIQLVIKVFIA
Nature of the assay: HTRF binding assay of GST-tagged MDMX to p53 peptide.

In assay [1] the target is recombinant GST-tagged MDM2 (Homo sapiens, UniProt Q00987). Kind of assay: HTRF assay of interaction between p53 peptide and GST-tagged MDM2. The following applies: inhibition of GST-MDM2 (160 ng/ml) binding to biotinylated p53-peptide. On the procedure: The ability of a test compound to inhibit the interaction between p53 and MDM2 protein was measured by an HTRF (homogeneous time-resolved fluorescence) assay in which recombinant GST-tagged MDM2 binds to a peptide that resembles the MDM2-interacting region of p53 Aca-[…]-OH hereinafter p53-peptide). Binding of GST-MDM2 protein and p53-peptide (biotinylated on its N-terminal end) is registered by the FRET (fluorescence resonance energy transfer) between Europium (Eu)-labeled anti-GST antibody and streptavidin-conjugated Allophycocyanin (APC).
The test was performed in black flat-bottom 384-well plates (Costar) in a total volume of 40 uL containing: 90 nM biotinylated peptide, 160 ng/ml GST-MDM2, 20 nM streptavidin-APC (PerkinElmerWallac), 2 nM Eu-labeled anti-GST-antibody (PerkinElmerWallac), 0.02% bovine serum albumin (BSA), 1 mM dithiothreitol (DTT) and 20 mM […] (TBS) buffer as follows: add 10 uL of GST-MDM2 (640 ng/ml working solution) in reaction buffer to each well. Add 10 uL diluted compounds (1:5 dilution in reaction buffer) to each well, mix by shaking. Add 20 uL biotinylated p53 peptide (180 nM working solution) in reaction buffer to each well and mix on shaker. Incubate at 37° C. for 1 h. Add […] streptavidin-APC and Eu-anti-GST antibody mixture (6 nM Eu-anti-GST and 60 nM streptavidin-APC working solution) in TBS buffer with 0.02% BSA, shake at room temperature for 30 minutes and read using a TRF-capable plate reader at 665 and 615 nm (Victor 5, Perkin ElmerWallac). If not specified, the reagents were purchased from Sigma Chemical Co.

Sequence of recombinant GST-tagged MDM2 (Q00987 whole entry): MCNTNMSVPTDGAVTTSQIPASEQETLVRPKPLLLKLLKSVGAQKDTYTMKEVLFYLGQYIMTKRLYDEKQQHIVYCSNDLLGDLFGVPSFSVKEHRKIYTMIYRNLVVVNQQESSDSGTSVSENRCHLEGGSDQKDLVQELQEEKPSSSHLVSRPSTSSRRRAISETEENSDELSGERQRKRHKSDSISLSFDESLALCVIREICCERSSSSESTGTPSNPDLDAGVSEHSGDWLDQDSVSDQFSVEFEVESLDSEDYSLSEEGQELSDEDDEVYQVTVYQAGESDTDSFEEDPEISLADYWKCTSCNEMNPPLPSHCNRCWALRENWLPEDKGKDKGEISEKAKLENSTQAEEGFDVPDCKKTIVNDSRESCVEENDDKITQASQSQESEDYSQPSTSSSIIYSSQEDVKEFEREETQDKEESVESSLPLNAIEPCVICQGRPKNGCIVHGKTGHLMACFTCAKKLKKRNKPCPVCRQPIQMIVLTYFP

For the compound `CCOc1cc(Cl)c(S(=O)(=O)N2CCCC2)cc1C1=N[C@@](C)(c2ccc(Cl)cc2)[C@@](C)(c2ccc(Cl)cc2)N1C(=O)N1CCC(CC(N)=O)CC1` [Example 56, 2-{1-[(4S,5R)-2-[4-Chloro-2-ethoxy-5-(pyrrolidine-1-sulfonyl)-phenyl]-4,5-bis-(4-chloro-phenyl)-4,5-dimethyl-4,5-dihydro-imidazole-1-carbonyl]-piperidin-4-yl}-acetamide], the figures for the IC50 (on GST-tagged MDMX; in assay [1]) were 3430 nM and 8.5 nM, respectively.
As to `CCOc1cc(Cl)c(S(C)(=O)=O)cc1C1=N[C@@](C)(c2ccc(Cl)cc2)[C@@](C)(c2ccc(Cl)cc2)N1C(=O)N1CCC(NC(=O)N2CCCC2)CC1` [Example 30, Pyrrolidine-1-carboxylic acid {1-[(4S,5R)-2-(4-chloro-2-ethoxy-5-methanesulfonyl-phenyl)-4,5-bis-(4-chloro-phenyl)-4,5-dimethyl-4,5-dihydro-imidazole-1-carbonyl]-piperidin-4-yl}-amide], the IC50 (in general, the concentration needed to halve the response being measured) at GST-tagged MDMX was 3350 nM; in assay [1] it was 12.7 nM.
The corresponding values for `CCOc1cc(Cl)c(S(C)(=O)=O)cc1C1=N[C@@](C)(c2ccc(Cl)cc2)[C@@](C)(c2ccc(Cl)cc2)N1C(=O)N1CCN(CC(=O)O)CC1` [Example 35, {4-[(4S,5R)-2-(4-Chloro-2-ethoxy-5-methanesulfonyl-phenyl)-4,5-bis-(4-chloro-phenyl)-4,5-dimethyl-4,5-dihydro-imidazole-1-carbonyl]-piperazin-1-yl}-acetic acid, hydrochloride] are 2860 nM and 6.7 nM.
The corresponding values for `CCOc1cc(Cl)c(S(=O)(=O)NC(C)(C)C)cc1C1=N[C@@](C)(c2ccc(Cl)cc2)[C@@](C)(c2ccc(Cl)cc2)N1C(=O)N1CCN(CC(=O)NCC2CCCO2)CC1` (mixture of isomers) [Example 48, 2-{4-[(4S,5R)-2-(5-tert-Butylsulfamoyl-4-chloro-2-ethoxy-phenyl)-4,5-bis-(4-chloro-phenyl)-4,5-dimethyl-4,5-dihydro-imidazole-1-carbonyl]-piperazin-1-yl}-N-(tetrahydro-furan-2-ylmethyl)-acetamide] are 1330 nM and 11.7 nM.
Taken in the same sequence, the figures for `CCOc1cc(Cl)c(S(C)(=O)=O)cc1C1=N[C@@](C)(c2ccc(Cl)cc2)[C@@](C)(c2ccc(Cl)cc2)N1C(=O)N1CCN(C[C@H](O)CO)CC1` [Example 3, [(4S,5R)-2-(4-Chloro-2-ethoxy-5-methanesulfonyl-phenyl)-4,5-bis-(4-chloro-phenyl)-4,5-dimethyl-4,5-dihydro-imidazol-1-yl]-[4-((S)-2,3-dihydroxy-propyl)-piperazin-1-yl]-methanone] were 1140 nM and 5.4 nM.
`CCOc1cc(Cl)c(S(C)(=O)=O)cc1C1=N[C@@](C)(c2ccc(Cl)cc2)[C@@](C)(c2ccc(Cl)cc2)N1C(=O)N1CCN(CC(=O)N2CCOCC2)CC1` [Example 17, 2-{4-[(4S,5R)-2-(4-Chloro-2-ethoxy-5-methanesulfonyl-phenyl)-4,5-bis-(4-chloro-phenyl)-4,5-dimethyl-4,5-dihydro-imidazole-1-carbonyl]-piperazin-1-yl}-1-morpholin-4-yl-ethanone]: the IC50 on GST-tagged MDMX is 1340 nM; in assay [1], 5.2 nM.
Consider `CC(C)Oc1cc(Cl)c(S(C)(=O)=O)cc1C1=N[C@@](C)(c2ccc(Cl)cc2)[C@@](C)(c2ccc(Cl)cc2)N1C(=O)N1CCN(CCCS(C)(=O)=O)CC1` [Example 40, [(4S,5R)-2-(4-Chloro-2-isopropoxy-5-methanesulfonyl-phenyl)-4,5-bis-(4-chloro-phenyl)-4,5-dimethyl-4,5-dihydro-imidazol-1-yl]-[4-(3-methanesulfonyl-propyl)-piperazin-1-yl]-methanone], for which the IC50 at GST-tagged MDMX turned out to be 290 nM; in assay [1], 6.1 nM.
Taken in the same sequence, the figures for `CCOc1cc(Cl)c(S(=O)(=O)NC(C)(C)C)cc1C1=N[C@@](C)(c2ccc(Cl)cc2)[C@@](C)(c2ccc(Cl)cc2)N1C(=O)N1CCN(CCC(N)=O)CC1` [Example 50, 3-{4-[(4S,5R)-2-(5-tert-Butylsulfamoyl-4-chloro-2-ethoxy-phenyl)-4,5-bis-(4-chloro-phenyl)-4,5-dimethyl-4,5-dihydro-imidazole-1-carbonyl]-piperazin-1-yl}-propionamide] were 1450 nM and 9.3 nM.
Taken in the same sequence, the figures for `CCCOc1cc(Cl)c(S(=O)(=O)N2CCCC2)cc1C1=N[C@@](C)(c2ccc(Cl)cc2)[C@@](C)(c2ccc(Cl)cc2)N1C(=O)N1CCN(CCCS(C)(=O)=O)CC1` [Example 55, {(4S,5R)-4,5-Bis-(4-chloro-phenyl)-2-[4-chloro-2-propoxy-5-(pyrrolidine-1-sulfonyl)-phenyl]-4,5-dimethyl-4,5-dihydro-imidazol-1-yl}-[4-(3-methanesulfonyl-propyl)-piperazin-1-yl]-methanone] were 3940 nM and 18.1 nM.
Take `CC(C)Oc1cc(Cl)c(S(=O)(=O)N2CCCC2)cc1C1=N[C@@](C)(c2ccc(Cl)cc2)[C@@](C)(c2ccc(Cl)cc2)N1C(=O)N1CCC(CC(N)=O)CC1` [Example 59, 2-{1-[(4S,5R)-2-[4-Chloro-2-isopropoxy-5-(pyrrolidine-1-sulfonyl)-phenyl]-4,5-bis-(4-chloro-phenyl)-4,5-dimethyl-4,5-dihydro-imidazole-1-carbonyl]-piperidin-4-yl}-acetamide]: the IC50 at GST-tagged MDMX came to 195 nM; in assay [1] it was 5.8 nM.
The corresponding values for `CCOc1cc(Cl)c(S(C)(=O)=O)cc1C1=N[C@@](C)(c2ccc(Cl)cc2)[C@@](C)(c2ccc(Cl)cc2)N1C(=O)N1CCC2(CCN(CC(N)=O)CC2)CC1` [Example 21, 2-{9-[(4S,5R)-2-(4-Chloro-2-ethoxy-5-methanesulfonyl-phenyl)-4,5-bis-(4-chloro-phenyl)-4,5-dimethyl-4,5-dihydro-imidazole-1-carbonyl]-3,9-diaza-spiro[5.5]undec-3-yl}-acetamide] are 1490 nM and 5.8 nM.
As for `CCOc1cc(Cl)c(S(C)(=O)=O)cc1C1=N[C@@](C)(c2ccc(Cl)cc2)[C@@](C)(c2ccc(Cl)cc2)N1C(=O)N1CCC(NC(=O)NC(C)C)CC1` [Example 11, 1-{1-[(4S,5R)-2-(4-Chloro-2-ethoxy-5-methanesulfonyl-phenyl)-4,5-bis-(4-chloro-phenyl)-4,5-dimethyl-4,5-dihydro-imidazole-1-carbonyl]-piperidin-4-yl}-3-isopropyl-urea], the figures for the IC50 (on GST-tagged MDMX; in assay [1]) were 1270 nM and 4.5 nM, respectively.
With `CCOCCN(CCOCC)C(=O)CN1CCN(C(=O)N2C(c3cc(S(C)(=O)=O)c(Cl)cc3OCC)=N[C@@](C)(c3ccc(Cl)cc3)[C@@]2(C)c2ccc(Cl)cc2)CC1` [Example 16, 2-{4-[(4S,5R)-2-(4-Chloro-2-ethoxy-5-methanesulfonyl-phenyl)-4,5-bis-(4-chloro-phenyl)-4,5-dimethyl-4,5-dihydro-imidazole-1-carbonyl]-piperazin-1-yl}-N,N-bis-(2-ethoxy-ethyl)-acetamide], the IC50 at GST-tagged MDMX stood at 849 nM; in assay [1], 5 nM.
The corresponding values for `CCOc1cc(Cl)c(S(C)(=O)=O)cc1C1=N[C@@](C)(c2ccc(Cl)cc2)[C@@](C)(c2ccc(Cl)cc2)N1C(=O)N1CCC(CS(C)(=O)=O)CC1` [Example 9, [(4S,5R)-2-(4-Chloro-2-ethoxy-5-methanesulfonyl-phenyl)-4,5-bis-(4-chloro-phenyl)-4,5-dimethyl-4,5-dihydro-imidazol-1-yl]-(4-methanesulfonylmethyl-piperidin-1-yl)-methanone] are 1700 nM and 5.8 nM.
`CCOc1cc(Cl)c(S(C)(=O)=O)cc1C1=N[C@@](C)(c2ccc(Cl)cc2)[C@@](C)(c2ccc(Cl)cc2)N1C(=O)N1CCC(NC(C)=O)CC1` [Example 36, N-{1-[(4S,5R)-2-(4-Chloro-2-ethoxy-5-methanesulfonyl-phenyl)-4,5-bis-(4-chloro-phenyl)-4,5-dimethyl-4,5-dihydro-imidazole-1-carbonyl]-piperidin-4-yl}-acetamide]: the IC50 at GST-tagged MDMX is 1270 nM; in assay [1], 4.8 nM.
